The results in this text go back to ChEMBL document CHEMBL5325474, “Di-indenopyridines as topoisomerase II-selective anticancer agents: Design, synthesis, and structure-activity relationships” (Bioorg Med Chem, 2023).

For experiment [1], the system named is HeLa. In words: Antiproliferative activity against human HeLa cells incubated for 72 hrs by microplate reader analysis. The class given is functional, cell-based.
Experiment [2] deals with DNA topoisomerase 2-alpha (Homo sapiens) (UniProt P11388). Kind of experiment: Inhibition of human DNA topoisomerase 2 alpha at 100 uM using supercoiled pBR322 DNA as substrate incubated for 30 mins by EtBr staining based agarose gel electrophoresis method relative to control.
Experiment [3] has the same target. In words: Poison activity at topoisomerase 2 alpha in human HCT-15 cells at 20 uM incubated for 24 hrs by alkaline comet assay. It is filed as cell-based.
The subject of experiment [4] is Calf thymus DNA. Kind of experiment: Displacement of EtBr from calf thymus DNA assessed as reduction in fluorescence intensity at 5 to 40 uM preincubated with EtBr for 30 mins followed by compound addition and measured after 30 mins by microplate reader analysis. It is filed as nucleic-acid assay. The following applies: Bos taurus, dose 5-40 µM.
In experiment [5] the test system is DU-145. Kind of experiment: Antiproliferative activity against human DU-145 cells incubated for 72 hrs by microplate reader analysis. The conditions noted are these: DU-145, 72 h. The class given is functional, cell-based.
Experiment [6] concerns the target T1, DNA topoisomerase 1 (Homo sapiens) (UniProt P11387).
T1 sequence (whole entry): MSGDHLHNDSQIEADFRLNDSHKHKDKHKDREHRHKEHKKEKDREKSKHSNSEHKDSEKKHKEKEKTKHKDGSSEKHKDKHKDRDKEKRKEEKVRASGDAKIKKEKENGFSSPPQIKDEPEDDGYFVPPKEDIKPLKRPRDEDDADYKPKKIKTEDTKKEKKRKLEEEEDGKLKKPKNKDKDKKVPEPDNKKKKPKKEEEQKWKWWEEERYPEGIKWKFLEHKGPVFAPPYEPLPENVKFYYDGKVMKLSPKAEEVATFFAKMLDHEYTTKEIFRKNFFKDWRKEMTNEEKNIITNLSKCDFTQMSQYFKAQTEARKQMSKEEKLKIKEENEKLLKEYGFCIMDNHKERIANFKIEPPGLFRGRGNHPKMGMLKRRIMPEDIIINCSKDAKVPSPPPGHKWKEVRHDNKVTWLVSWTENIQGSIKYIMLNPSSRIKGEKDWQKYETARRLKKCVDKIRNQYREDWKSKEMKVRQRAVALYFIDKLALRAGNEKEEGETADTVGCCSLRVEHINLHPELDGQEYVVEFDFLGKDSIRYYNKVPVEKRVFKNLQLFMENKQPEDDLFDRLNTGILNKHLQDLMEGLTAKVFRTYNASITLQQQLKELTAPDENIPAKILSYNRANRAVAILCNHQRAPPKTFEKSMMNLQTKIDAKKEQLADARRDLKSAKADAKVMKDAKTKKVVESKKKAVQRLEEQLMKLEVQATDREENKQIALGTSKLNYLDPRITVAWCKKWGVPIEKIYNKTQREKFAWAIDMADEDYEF
In words: Inhibition of human DNA topoisomerase 1 at 100 uM using supercoiled pBR322 DNA as substrate incubated for 30 mins by EtBr staining based agarose gel electrophoresis method relative to control.

In experiment [7] the target is DNA topoisomerase 2-alpha (Homo sapiens) (UniProt P11388). Kind of experiment: Inhibition of human DNA topoisomerase 2 alpha at 20 uM using supercoiled pBR322 DNA as substrate incubated for 30 mins by EtBr staining based agarose gel electrophoresis method relative to control.
Experiment [8] shares this target. Kind of experiment: Catalytic inhibition of human DNA topoisomerase 2 alpha expressed in baculovirus infected insect cells assessed as reduction in linear DNA formation at 200 to 500 uM using supercoiled pBR322 DNA as substrate incubated for 30 mins by agarose gel electrophoresis. The following applies: dose 200-500 µM.
For experiment [9], the system named is T47D. In words: Antiproliferative activity against human T47D cells incubated for 72 hrs by microplate reader analysis. The class given is functional, cell-based.
Experiment [10] deals with HCT-15. In words: Antiproliferative activity against human HCT-15 cells incubated for 72 hrs by microplate reader analysis. The following applies: HCT-15, 72 h. The class given is functional, cell-based.

Active and inactive are the calls of the source. The rule behind the calls is not given here.

Sequence of DNA topoisomerase 2-alpha (Homo sapiens) (P11388 whole entry): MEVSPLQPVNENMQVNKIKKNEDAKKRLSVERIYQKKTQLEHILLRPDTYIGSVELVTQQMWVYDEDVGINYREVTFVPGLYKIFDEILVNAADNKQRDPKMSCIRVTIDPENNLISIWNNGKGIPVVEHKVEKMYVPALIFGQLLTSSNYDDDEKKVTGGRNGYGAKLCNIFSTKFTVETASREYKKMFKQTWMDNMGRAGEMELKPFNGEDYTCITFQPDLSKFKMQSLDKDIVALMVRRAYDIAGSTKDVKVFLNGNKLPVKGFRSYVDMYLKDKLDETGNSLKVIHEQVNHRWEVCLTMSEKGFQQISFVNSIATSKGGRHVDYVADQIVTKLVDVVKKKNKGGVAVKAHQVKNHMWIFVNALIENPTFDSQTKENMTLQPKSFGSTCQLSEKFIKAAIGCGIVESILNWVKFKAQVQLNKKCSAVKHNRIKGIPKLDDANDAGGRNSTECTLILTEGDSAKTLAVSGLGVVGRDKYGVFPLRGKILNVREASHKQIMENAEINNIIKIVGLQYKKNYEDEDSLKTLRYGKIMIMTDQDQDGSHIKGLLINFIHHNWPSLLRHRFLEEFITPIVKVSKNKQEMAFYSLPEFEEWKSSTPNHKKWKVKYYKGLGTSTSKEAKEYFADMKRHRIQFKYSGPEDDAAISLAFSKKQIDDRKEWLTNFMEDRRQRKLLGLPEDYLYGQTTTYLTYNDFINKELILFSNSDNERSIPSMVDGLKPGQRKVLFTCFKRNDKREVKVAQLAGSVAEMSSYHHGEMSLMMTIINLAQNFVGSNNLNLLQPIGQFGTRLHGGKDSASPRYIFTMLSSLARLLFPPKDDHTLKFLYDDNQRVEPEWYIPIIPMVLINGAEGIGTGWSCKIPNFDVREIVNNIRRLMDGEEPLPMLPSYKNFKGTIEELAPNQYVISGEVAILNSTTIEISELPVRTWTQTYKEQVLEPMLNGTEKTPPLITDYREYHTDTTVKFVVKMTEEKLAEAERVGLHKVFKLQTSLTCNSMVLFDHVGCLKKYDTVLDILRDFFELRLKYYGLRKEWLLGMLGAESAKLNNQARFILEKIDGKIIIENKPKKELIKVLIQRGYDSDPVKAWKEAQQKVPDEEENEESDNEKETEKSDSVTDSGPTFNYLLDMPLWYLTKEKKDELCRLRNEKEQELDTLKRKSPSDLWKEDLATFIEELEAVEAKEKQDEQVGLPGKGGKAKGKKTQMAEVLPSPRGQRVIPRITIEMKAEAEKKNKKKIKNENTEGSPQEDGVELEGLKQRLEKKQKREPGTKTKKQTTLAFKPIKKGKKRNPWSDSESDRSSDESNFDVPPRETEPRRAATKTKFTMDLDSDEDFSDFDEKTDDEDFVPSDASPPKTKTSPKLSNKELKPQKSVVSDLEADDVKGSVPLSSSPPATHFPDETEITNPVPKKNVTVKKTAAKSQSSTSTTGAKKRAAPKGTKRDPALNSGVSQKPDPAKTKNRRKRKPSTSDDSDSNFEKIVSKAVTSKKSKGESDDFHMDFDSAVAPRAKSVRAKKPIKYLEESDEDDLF

The term IC50 denotes the point on the concentration scale where inhibition reaches its midpoint. As a reminder, the inhibition is the share of the control response that was lost under treatment. Turning to `Oc1cccc2c1Cc1c-2nc2c(c1-c1ccco1)Cc1c(O)cccc1-2`, the IC50 in [1] is 9.63 µM; in [5], 5.23 µM; in experiment [9], 4.16 µM; in experiment [10], 1.71 µM. Besides, the inhibition in [2] was 100%; in experiment [6], -0%; in experiment [7], 100%. The result in experiment [3] and in experiment [4] was inactive. Moreover, the inhibition result in experiment [8] is “Active”.
